Source: patent publication US4684647A, “Anti-bacterial pyrido-benzothiazine derivative and pharmaceutical composition therefor” (priority 1984, dated 1987)
Values after ≈ are worked out from the molar mass of the structure shown.

Legend:
Escherichia coli (981) = test: MIC in agar, Escherichia coli (981); type: cell-based; details: Isosensitest agar, 10^4 CFU, 24 h, 37° C.
Procedure: (§1) The antibacterial activity (minimum inhibiting concentration, MIC) of the compounds according to the invention has been determined in agar, by adding the compound under evaluation at concentrations of from 0.1 to 100 meg/ml by means of a "multipoint inoculator" (Denley Techn. Ltd., England); the medium used was Isosensitest agar (Oxoid); the bacterial inoculate was 10^4 colony forming unity (CFU) per inoculation point. The reading of the results was done after 24 hour-incubation in thermostat at 37° C.
(§2) The MIC was defined as the lowest concentration of chemotherapeutic agent still capable of totally inhibiting the growth of bacteria, as detected from a lack of colony development in the inoculation point.
(§3) The microorganisms used for evaluating the activity of the specific compounds have been: Escherichia coli, Klebsiella P., Enterobacter, Serratia, Citrobacter, Proteus (+), Salmonella, Pseudomonas, Staphylococcus. All the compounds according to the present invention are provided with antibacterial activity against one or more microorganism(s) among those above mentioned. Some of such compounds are absorbed after having been administered orally to the animals, and are particularly useful as disinfectants of the urinary tract in that they are excreted in a high percentage (50-70% over 24 hours after the administration of 50 mg/kg per os) as such, and in metabolic active form, through the urine.
A = Escherichia coli (981)

Pseudomonas aeruginosa = test: MIC in agar, Pseudomonas aeruginosa; type: cell-based; details: Isosensitest agar, 10^4 CFU, 24 h, 37° C., read-out: MIC, B = Pseudomonas aeruginosa
Procedure: as §1, §2, §3
B = P udomonas aeruginosa

Staphylococcus aureus = test: MIC in agar, Staphylococcus aureus; type: cell-based; details: Isosensitest agar, 10^4 CFU, 24 h, 37° C.
Procedure: as §1, §2, §3

[1] = test system: Proteus Morgani (indole +); test: MIC in agar, Proteus Morgani (indole +); type: cell-based; details: Isosensitest agar, 10^4 CFU, 24 h, 37° C.; read-out: MIC, D = Proteus Morgani (indole +)
Procedure: as §1, §2, §3
D = Proteus Morgani (indole +)

Klebsiella pneumoniae = test: MIC in agar, Klebsiella pneumoniae; type: cell-based; details: Isosensitest agar, 10^4 CFU, 24 h, 37° C., read-out: MIC, E = Klebsiella pneumoniae
Procedure: as §1, §2, §3
E = Klebsiella pneumoniae

Enterobacter = test: MIC in agar, Enterobacter; type: cell-based; details: Isosensitest agar, 10^4 CFU, 24 h, 37° C., read-out: MIC, F = Enterobacter
Procedure: as §1, §2, §3

Citrobacter = test: MIC in agar, Citrobacter; type: cell-based; details: Isosensitest agar, 10^4 CFU, 24 h, 37° C., read-out: MIC, G = Citrobacter
Procedure: as §1, §2, §3

bacteria = test: antibacterial activity in vitro, overall; type: cell-based; details: for anti-bacterial activity in vitro: Table 1; for activity with chlorine instead of fluorine in the X-position: comparison with (a), (c), (p)
Procedure: as §1, §2, §3

[2] = pharmacokinetic test, absorption; type: in vivo
in vivo = details: rat, po
Procedure: In Table 4 the percentage of urinary excretion of compound (h) is reported, as measured in the 24 hours successive to oral administration of the same to rats.
Each value is the average of three tested rats.
The tests have been performed in comparison with Ofloxacin, a well known antibacterial compound. The amount of excreted product has been determined with microbiological analysis, by using Klebsiella Pneumoniae as the testing microorganism.

Row | Compound | MIC (Escherichia coli (981)) [µg/mL] | MIC (Pseudomonas aeruginosa) [µg/mL] | MIC (Staphylococcus aureus) [µg/mL] | MIC [1] [µg/mL] | MIC (Klebsiella pneumoniae) [µg/mL] | MIC (Enterobacter) [µg/mL] | MIC (Citrobacter) [µg/mL] | anti-bacterial activity in vitro (bacteria) | absorption [2] | activity with chlorine instead of fluorine in the X-position (bacteria) | dose excreted at 24 h (in vivo; 20 mg/kg) [%] | dose excreted at 24 h (in vivo; 50 mg/kg) [%]
1 | O=C(O)c1cn2c3c(c(Cl)c(F)cc3c1=O)SCC2 [(a), 9-fluoro-10-chloro-7-oxo-2,3-dihydro-7H-pyrido[1,2,3de][1,4]benzothiazine-6-carboxylic acid] | 0.39 (≈ 1.3 µM) | > 25 | 0.39 (≈ 1.3 µM) | 1.56 (≈ 5.21 µM) | 0.78 (≈ 2.6 µM) | 0.39 (≈ 1.3 µM) | 0.78 (≈ 2.6 µM) | very good and comparable anti-bacterial activity | not at all absorbed |  |  | 
2 | O=C(O)c1cn2c3c(c(N4CCCC4)c(F)cc3c1=O)SCC2 [(c)] | 1.56 (≈ 4.67 µM) | 3.12 (≈ 9.33 µM) | < 0.39 | 3.12 (≈ 9.33 µM) | 1.56 (≈ 4.67 µM) | 1.56 (≈ 4.67 µM) | 25 (≈ 74.8 µM) | very good and comparable anti-bacterial activity |  |  |  | 
3 | O=C(O)c1cn2c3c(c(N4CCCC4)c(F)cc3c1=O)[S+]([O-])CC2 (centres unmarked) [(e)] | 12.5 (≈ 35.7 µM) | > 50 | 12.5 (≈ 35.7 µM) | > 50 | 25 (≈ 71.4 µM) | 50 (≈ 143 µM) | 50 (≈ 143 µM) |  |  |  |  | 
4 | O=C(O)c1cn2c3c(c(N4CCCC4)c(F)cc3c1=O)S(=O)(=O)CC2 [(f), 9-fluoro-10-(1-pyrrolidinyl)-7-oxo-2,3-dihydro-7H-pyrido[1,2,3 de][1,4]benzothiazine-1,1-dioxido-6-carboxylic acid] | 3.12 (≈ 8.52 µM) | > 50 | 3.12 (≈ 8.52 µM) | > 50 | 25 (≈ 68.2 µM) | 25 (≈ 68.2 µM) | 25 (≈ 68.2 µM) |  |  |  |  | 
5 | O=C(O)c1cn2c3c(c(N4CCNCC4)c(F)cc3c1=O)SCC2 [(g)] | 0.39 (≈ 1.12 µM) | 12.5 (≈ 35.8 µM) | 0.78 (≈ 2.23 µM) | 1.56 (≈ 4.46 µM) | < 0.39 | < 0.39 | 0.78 (≈ 2.23 µM) | very good and comparable anti-bacterial activity |  |  |  | 
6 | O=C(O)c1cn2c3c(c(N4CCN(CC(F)(F)F)CC4)c(F)cc3c1=O)SCC2 [(i)] | > 50 | > 50 | 0.39 (≈ 0.904 µM) | > 50 | > 50 | > 50 | 12.5 (≈ 29 µM) |  |  |  |  | 
7 | O=C(O)c1cn2c3c(c(N4CCN(C(=O)C(F)(F)F)CC4)c(F)cc3c1=O)SCC2 [(l)] | < 0.39 | 12.5 (≈ 28.1 µM) | 1.56 (≈ 3.5 µM) | 1.56 (≈ 3.5 µM) | < 0.39 | < 0.39 | 0.39 (≈ 0.876 µM) | very good and comparable anti-bacterial activity |  |  |  | 
8 | CC1CN(c2c(F)cc3c(=O)c(C(=O)O)cn4c3c2SCC4)CC(C)N1 (centres unmarked) [(m)] | 6.25 (≈ 16.6 µM) | 100 (≈ 265 µM) | 3.12 (≈ 8.27 µM) | 25 (≈ 66.2 µM) | 6.25 (≈ 16.6 µM) | 3.12 (≈ 8.27 µM) | 12.5 (≈ 33.1 µM) |  |  |  |  | 
9 | CC1CSc2c(Cl)c(F)cc3c(=O)c(C(=O)O)cn1c23 (centres unmarked) [(n), 9-fluoro-10-chloro-3-methyl-7-oxo-2,3-dihydro-7H-pyrido[1,2,3 de][1,4]benzothiazine-6-carboxylic acid] | 0.39 (≈ 1.24 µM) | 25 (≈ 79.7 µM) | 0.39 (≈ 1.24 µM) |  | 0.78 (≈ 2.49 µM) | 0.39 (≈ 1.24 µM) |  | very good and comparable anti-bacterial activity |  |  |  | 
10 | CC1CSc2c(F)c(F)cc3c(=O)c(C(=O)O)cn1c23 (centres unmarked) [(o), 9,10-difluoro-3-methyl-7-oxo-2,3-dihydro-7H-pyrido[1,2,3 de][1,4]benzothiazine-6-carboxylic acid] |  |  |  |  |  |  |  | very good and comparable anti-bacterial activity |  |  |  | 
11 | CC1CSc2c(N3CCN(C)CC3)c(F)cc3c(=O)c(C(=O)O)cn1c23 (centres unmarked) [(p)] | 0.78 (≈ 2.07 µM) | 50 (≈ 132 µM) | 0.78 (≈ 2.07 µM) |  | < 0.39 | < 0.39 |  | very good and comparable anti-bacterial activity |  |  |  | 
12 | CC1CSc2c(N3CCNCC3)c(F)cc3c(=O)c(C(=O)O)cn1c23 (centres unmarked) [(r)] | 0.78 (≈ 2.15 µM) | 12.5 (≈ 34.4 µM) | 0.78 (≈ 2.15 µM) |  | < 0.39 | < 0.39 |  | very good and comparable anti-bacterial activity |  |  |  | 
13 | O=C(O)c1cn2c3c(c(Cl)c(Cl)cc3c1=O)SCC2 [Comparison (b), reference compound] | > 50 | > 50 | 0.78 (≈ 2.47 µM) | 6.25 (≈ 19.8 µM) | 12.5 (≈ 39.5 µM) | > 50 | > 50 |  |  | strongly reduced |  | 
14 | O=C(O)c1cn2c3c(c(N4CCCC4)c(Cl)cc3c1=O)SCC2 [Comparison (d), reference compound] | > 50 | > 50 | 0.78 (≈ 2.22 µM) | 3.12 (≈ 8.89 µM) | 12.5 (≈ 35.6 µM) | > 50 | > 50 |  |  | strongly reduced |  | 
15 | CC1CSc2c(N3CCN(C)CC3)c(Cl)cc3c(=O)c(C(=O)O)cn1c23 (centres unmarked) [Comparison (q), reference compound] | > 50 | > 12.5 | 3.12 (≈ 7.92 µM) |  | 12.5 (≈ 31.7 µM) | > 50 |  |  |  | strongly reduced |  | 
16 | CC1COc2c(N3CCN(C)CC3)c(F)cc3c(=O)c(C(=O)O)cn1c23 (centres unmarked) [Ofloxacin, reference compound] |  |  |  |  |  |  |  |  |  |  | 61 ± 4.58 | 54.5 ± 5.29
